From PMC10394672, “Crystal structure of dihydrofolate reductase from the emerging pathogenic fungus Candida auris” (Acta Crystallographica. Section D, Structural Biology, 2023)
Converted amounts (≈) assume the structure as drawn. Where two headings read alike, the source gives them in different places.

What was measured:
[1] = biological target: T1, dihydrofolate reductase (CauDHFR) (Candidozyma auris, UniProt A0A0L0P1H8); assay: ([…] Å); DSF shift +[…] °C; NADPH-consumption IC50; type: biochemical
T1 construct: gene QG37_02791; His-tag-removed CauDHFR
T1 sequence (A0A0L0P1H8 1-204): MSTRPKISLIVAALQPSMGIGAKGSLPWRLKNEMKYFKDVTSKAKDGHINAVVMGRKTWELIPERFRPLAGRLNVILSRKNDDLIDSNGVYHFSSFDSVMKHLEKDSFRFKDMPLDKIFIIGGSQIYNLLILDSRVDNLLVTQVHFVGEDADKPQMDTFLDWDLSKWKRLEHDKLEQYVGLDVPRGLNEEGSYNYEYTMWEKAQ

C. albicans = tested on: T2, C. albicans; assay: microbe, parasite or virus in culture; parameters: species or system Candida yeast; settings: Candida albicans, 24 h, 50% growth inhibition end point
T2 construct: SC 5314
Experimental: (§1) The antifungal activity of DHFR inhibitors was evaluated against C. albicans (SC 5314), C. glabrata (ATCC 2001) and C. auris (CBS 12766) by the broth microdilution technique (CLSI, 2017[▸]). DHFR inhibitors were serially diluted (1:2) in RPMI 1640 medium buffered with 0.165 M 3-(N-morpholino)propanesulfonic acid in 96-well flat-bottom plates and yeast suspension was added to the wells to obtain a final yeast concentration of 0.5–2.5 × 10^3 CFU ml^−1 and final concentrations of DHFR inhibitors in the range 1–500 µg ml^−1. […] Studies were then performed against Candida spp. yeasts, with the addition of two more antifolates: diaveridine (DIA) and pemetrexed (PMX) (Supplementary Table S1). The inhibitory effect of these inhibitors on the fungal growth of C. albicans, C. glabrata and C. auris was tested using the broth microdilution assay. […] (Supplementary Table S1), including C. auris, supporting the lack of affinity seen in the IC50 assay (Table 2 ▸).

C. auris = tested on: T3, C. auris; assay: microbe, parasite or virus in culture; parameters: species or system Candida yeast; settings: Candidozyma auris, 24 h, 50% growth inhibition end point
T3 construct: CBS 12766
Experimental: as §1

C. glabrata = tested on: T4, C. glabrata; assay: microbe, parasite or virus in culture; parameters: species or system Candida yeast; settings: Nakaseomyces glabratus, 24 h, 50% growth inhibition end point
T4 construct: ATCC 2001
Experimental: as §1

Compound `CC1(C)N=C(N)N=C(N)N1c1ccc(Cl)cc1` [CYG, cycloguanil] has an IC50 [1] of 401 µM, an MIC (C. albicans; read-out: MIC cycloguanil) of 500 µg/mL (≈ 1990 µM) and an MIC (C. auris; read-out: MIC cycloguanil) of over 500 µg/mL. For the same compound, the MIC (C. glabrata; read-out: MIC cycloguanil) was 500 µg/mL (≈ 1990 µM).
`CN(Cc1cnc2nc(N)nc(N)c2n1)c1ccc(C(=O)N[C@@H](CCC(=O)O)C(=O)O)cc1` [MTX, methotrexate] showed an MIC (C. albicans; read-out: MIC methotrexate) of 250 µg/mL (≈ 550 µM), an MIC (C. auris; read-out: MIC methotrexate) of over 500 µg/mL and an MIC (C. glabrata; read-out: MIC methotrexate) of over 500 µg/mL.
For `CCc1nc(N)nc(N)c1-c1ccc(Cl)cc1` [PYR, pyrimethamine], the MIC (C. albicans; read-out: MIC pyrimethamine) was 62.5 µg/mL (≈ 251 µM), the MIC (C. auris; read-out: MIC pyrimethamine) was 125 µg/mL (≈ 503 µM) and the MIC (C. glabrata; read-out: MIC pyrimethamine) was 62.5 µg/mL (≈ 251 µM).
`COc1cc(Cc2cnc(N)nc2N)cc(OC)c1OC` [TMP, trimethoprim] showed an MIC (C. albicans; read-out: MIC trimethoprim) of 500 µg/mL (≈ 1720 µM), an MIC (C. auris; read-out: MIC trimethoprim) of over 500 µg/mL and an MIC (C. glabrata; read-out: MIC trimethoprim) of 500 µg/mL (≈ 1720 µM).
`COc1ccc(Cc2cnc(N)nc2N)cc1OC` [diaveridine] was tested, and the MIC (C. albicans; read-out: MIC diaveridine) was over 500 µg/mL, the MIC (C. auris; read-out: MIC diaveridine) was over 500 µg/mL and the MIC (C. glabrata; read-out: MIC diaveridine) was 500 µg/mL (≈ 1920 µM).
`Nc1nc2[nH]cc(CCc3ccc(C(=O)N[C@@H](CCC(=O)O)C(=O)O)cc3)c2c(=O)[nH]1` [pemetrexed] showed an MIC (C. albicans; read-out: MIC pemetrexed) of 500 µg/mL (≈ 1170 µM), an MIC (C. auris; read-out: MIC pemetrexed) of over 500 µg/mL and an MIC (C. glabrata; read-out: MIC pemetrexed) of 500 µg/mL (≈ 1170 µM).
